Tested on: gut microbiome
Assay: Microbial 16S rDNA analysis of fecal samples
Format: in vivo, mice
Conditions: 38 mg/day hCol1 or glucosamine, FIG. 10C
Method: FIGS. 10A-10C: hCol1 supplementation induces significant change in the gut microbiome. Microbial rDNA analysis was performed on fecal samples collected from lean and obese mice supplemented with control Nutella, 38 mg/day hCol1, or glucosamine. […] FIG. 10A: Principal coordinate analysis of microbial abundance from obese control Nutella (1), obese glucosamine (2), obese hCol1 (3), lean hCol1 (4), lean glucosamine (5) and lean control Nutella (6) mice. […] FIGS. 15A-15G: hCol1 and hCol2 supplementation induces significant change in the gut microbiome and provides protective effects in post-traumatic osteoarthritis. (FIG. 15A) Microbial rDNA analysis was performed on fecal samples collected from chow fed mice supplemented with control Nutella, 38 mg/day hCol1, or 15 mg/day hCol2 for 4 weeks. Bars show relative microbial abundance in the indicated groups. Each bar represents an average of 3 mice. In the chow diet, hCol 1 and 2 tended to have similar effects: Increases in the abundance of Bacteroidales, Lactobacillales, Turicibacterales, and Anaeroplasmatales. […] Panels depicting the tibia uncalcified cartilage area (FIG. 15B), the number of chondrocytes in the tibia uncalcified cartilage (FIG. 15C), the number (FIG. 15D) and percentage (FIG. 15E) of Safranin-O positive (SafO^+) chondrocytes in the tibia uncalcified cartilage, the femur uncalcified cartilage area (FIG. 15F), and the number of chondrocytes in the femur uncalcified cartilage (FIG. 15G) in Sham and DMM chow fed mice supplemented with vehicle (Nutella) (Control DMM), hCol1 (P1 DMM) or hCol2 (P2 DMM) at 12 weeks after injury. FIGS. 16A-16E: (FIG. 16A) Microbial rDNA analysis was performed on fecal samples collected from lean fed mice supplemented with control Nutella, 38 mg/day hCol1, or 15 mg/day hCol2. Bars show relative microbial abundance in the indicated groups. […] Panels depicting the tibia cartilage area (FIG. 16B), the tibia uncalcified cartilage area (FIG. 16C), the number of chondrocytes in the tibia uncalcified cartilage (FIG. 16D), and the percentage (FIG. 16E) of Safranin-O positive (SafO^+) chondrocytes in the tibia uncalcified cartilage in Sham and DMM lean fed mice supplemented with vehicle (Nutella) (Control DMM), hCol1 (P1 DMM) or hCol2 (P2 DMM) at 12 weeks after injury. FIG. 17A-17H: (FIG. 17A) Microbial rDNA analysis was performed on fecal samples collected from high fat (HF) (60% of caloric energy from saturated fat) fed mice supplemented with control Nutella, 38 mg/day hCol1, or 15 mg/day hCol2 for 4 weeks. Bars show relative microbial abundance in the indicated groups. […] Panels depicting the tibia cartilage area (FIG. 17B), the tibia uncalcified cartilage area (FIG. 17C), the number of chondrocytes in the tibia uncalcified cartilage (FIG. 17D), the number of Safranin-O positive (SafO^+) chondrocytes in the tibia uncalcified cartilage (FIG. 17E), the femur uncalcified cartilage area (FIG. 17F), the number of chondrocytes in the femur uncalcified cartilage (FIG. 17G), and the number of Safranin-O positive (SafO^+) chondrocytes in the femur uncalcified cartilage (FIG. 17H) in Sham and DMM high fat diet-fed mice supplemented with vehicle (Nutella) (Control DMM), hCol1 (P1 DMM) or hCol2 (P2 DMM) at 3 weeks after injury. FIG. 19: hCol2 alters the gut microbiome. Mice fed chow or high fat diet for 3 months were supplemented daily with hCol2 (HFD+hCol2) or vehicle (Nutella) (HFD) for 4 weeks. Fecal samples were collected and microbial rDNA analysis was performed. A subset of bacterial species was altered in high fat diet-fed mice compared to chow fed mice, and hCol2 supplementation changed the gut microbiome of these high fat diet-fed mice. Numerous proinflammatory species, particularly Peptococcaceae rc4-4 sp, were reduced in hCol2-supplemented mice (top heat map). Conversely, several anti-inflammatory species were enhanced in hCol2-supplemented animals, including Bifidobacterium pseudolongum (bottom heat map). […]

N[C@H]1C(O)O[C@H](CO)[C@@H](O)[C@@H]1O (some centres unmarked) [glucosamine]
relative microbial abundance: Actinobacteria (lean mice): 12.07% | relative microbial abundance: Bacteroidetes (lean mice): 13.4103% | relative microbial abundance: Firmicutes (lean mice): 72.6939% | relative microbial abundance: Tenericutes (lean mice): 1.1749% | relative microbial abundance: Verrucomicrobia (lean mice): 0.0119% | relative microbial abundance: Actinobacteria (lean mice, listed as Glucosamine): 12.7091% | relative microbial abundance: Actinobacteria (obese mice): 0.4928% | relative microbial abundance: Bacteroidetes (obese mice): 11.2335% | relative microbial abundance: Firmicutes (obese mice): 88.0274% | relative microbial abundance: Proteobacteria (obese mice): 0.0005% | relative microbial abundance: Verrucomicrobia (obese mice): 0.2458%
